Results on four compounds are retold here after PMC5823858, “Endogenous insensitivity to the Orco agonist VUAA1 reveals novel olfactory receptor complex properties in the specialist fly Mayetiola destructor” (Scientific Reports, 2018).

What all share (assay): Fluo-4AM calcium fluorescence, plate reader
Test [1] has as its system T1, MdesOR115 + MdesOrco.
T1 construct: gene OR115; stoichiometry unknown; with Odorant receptor coreceptor
The test is classed as cell-based, Mayetiola destructor. The following applies: agonist of OR; OR and Orco co-expressed.

In another test the test system is T2, MdesOR115 + AsegOrco.
T2 construct: gene OR115; heterospecific complex: M. destructor OR115 (V5 tag) with Agrotis segetum Orco (c-myc tag), TREx/HEK293; with Odorant receptor coreceptor (Agrotis segetum)
The test is classed as cell-based, Mayetiola destructor. The conditions noted are these: agonist of OR; heterospecific Orco co-expressed.

For the next test, the system named is T3, MdesOR115 + DmelOrco.
T3 construct: gene OR115; heterospecific complex: M. destructor OR115 (V5 tag) with Drosophila melanogaster Orco (c-myc tag), TREx/HEK293; with Odorant receptor coreceptor (Drosophila melanogaster)
The test is classed as cell-based, Mayetiola destructor. The following applies: agonist of OR; heterospecific Orco co-expressed.

The test system of test [2] is T1, MdesOR115 + MdesOrco. It counts as cell-based, Mayetiola destructor. The conditions noted are these: agonist of OR; OR and mutant Orco co-expressed. From the text:
Fluo-4AM calcium fluorescence, plate reader on MdesOR115 + MdesOrco | when co-expressed with either WT MdesOrco or MdesOrco^(H81F, N133L, A350S)

For a further test, the system named is T4, AsegOR7 + DmelOrco.
T4 construct: gene OR7; heterospecific complex: A. segetum OR7 (V5 tag) with Drosophila melanogaster Orco (c-myc tag), TREx/HEK293; with Odorant receptor coreceptor (Drosophila melanogaster)
It counts as cell-based, Agrotis segetum. The conditions noted are these: agonist of OR; heterospecific Orco co-expressed. From the text: Fluo-4AM calcium fluorescence, plate reader on AsegOR7 + DmelOrco | they responded well to their respective OR-specific ligand

The test system of test [3] is T5, AsegOR7 + MdesOrco.
T5 construct: gene OR7; heterospecific complex: A. segetum OR7 (V5 tag) with Mayetiola destructor Orco (c-myc tag), TREx/HEK293; with Odorant receptor coreceptor (Mayetiola destructor)
The test is classed as cell-based, Agrotis segetum. The conditions noted are these: agonist of OR; heterospecific Orco co-expressed.

The test system of test [4] is T6, AsegOR7 + AsegOrco.
T6 construct: gene OR7; stoichiometry unknown; with Odorant receptor coreceptor
It counts as cell-based, Agrotis segetum. The following applies: agonist of OR; OR and Orco co-expressed. The source says:
Fluo-4AM calcium fluorescence, plate reader on AsegOR7 + AsegOrco | when AsegOR7 was co-expressed with WT AsegOrco the cells responded dose dependently

Test [5] deals with T5, AsegOR7 + MdesOrco. It counts as cell-based, Agrotis segetum. The conditions noted are these: agonist of OR; heterospecific mutant Orco co-expressed. The source says: Fluo-4AM calcium fluorescence, plate reader on AsegOR7 + MdesOrco | when co-expressed with either version of MdesOrco
Test [6] concerns T6, AsegOR7 + AsegOrco. The test is classed as cell-based, Agrotis segetum. The conditions noted are these: agonist of OR; OR and mutant Orco co-expressed.
In a further test the target is T7, AsegOrco (Agrotis segetum, UniProt U5KJY5).
T7 construct: homomeric channel
T7 sequence (U5KJY5 2-473 limits assumed): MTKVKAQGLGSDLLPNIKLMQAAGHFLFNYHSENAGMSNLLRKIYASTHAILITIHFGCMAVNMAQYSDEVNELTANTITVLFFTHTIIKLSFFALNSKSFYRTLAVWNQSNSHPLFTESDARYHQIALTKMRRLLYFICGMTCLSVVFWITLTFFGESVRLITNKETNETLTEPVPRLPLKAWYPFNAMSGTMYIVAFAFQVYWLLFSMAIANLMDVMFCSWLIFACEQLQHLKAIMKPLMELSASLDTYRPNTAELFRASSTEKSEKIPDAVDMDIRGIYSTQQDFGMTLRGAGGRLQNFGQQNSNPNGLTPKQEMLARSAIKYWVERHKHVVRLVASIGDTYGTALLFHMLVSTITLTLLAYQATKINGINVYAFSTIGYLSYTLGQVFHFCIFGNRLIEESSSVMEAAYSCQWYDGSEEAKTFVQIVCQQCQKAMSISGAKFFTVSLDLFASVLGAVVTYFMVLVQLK
It counts as cell-based. The source says:
Fluo-4AM calcium fluorescence, plate reader on AsegOrco | WT AsegOrco and DmelOrco responded dose-dependently to VUAA1

In the next test the target is T8, DmelOrco (Drosophila melanogaster, UniProt Q9VNB5).
T8 construct: gene Orco; homomeric channel
T8 sequence (Q9VNB5 1-486): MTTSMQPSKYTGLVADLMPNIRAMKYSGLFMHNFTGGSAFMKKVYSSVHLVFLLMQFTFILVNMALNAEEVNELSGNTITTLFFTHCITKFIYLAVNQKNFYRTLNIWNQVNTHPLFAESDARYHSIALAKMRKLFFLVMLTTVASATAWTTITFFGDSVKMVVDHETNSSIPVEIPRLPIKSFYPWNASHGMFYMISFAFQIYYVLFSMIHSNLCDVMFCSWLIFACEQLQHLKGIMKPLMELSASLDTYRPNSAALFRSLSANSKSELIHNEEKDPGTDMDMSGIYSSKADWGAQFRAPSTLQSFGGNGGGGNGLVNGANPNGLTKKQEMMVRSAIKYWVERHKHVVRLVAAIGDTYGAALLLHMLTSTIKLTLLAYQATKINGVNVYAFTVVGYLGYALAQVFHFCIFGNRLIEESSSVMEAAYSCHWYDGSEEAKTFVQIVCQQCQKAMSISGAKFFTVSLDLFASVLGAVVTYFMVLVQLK
The test is classed as cell-based. From the text:
Fluo-4AM calcium fluorescence, plate reader on DmelOrco | WT AsegOrco and DmelOrco responded dose-dependently to VUAA1

Test [7] addresses T9, MdesOrco (Mayetiola destructor, UniProt A0A1D8GZG0, A350S/C230Q/C408S/H81F/I150T/N133L/T205L).
T9 construct: homomeric channel
T9 sequence (A0A1D8GZG0 1-466 H81F/N133L/I150T/T205L/C230Q/A350S/C408S): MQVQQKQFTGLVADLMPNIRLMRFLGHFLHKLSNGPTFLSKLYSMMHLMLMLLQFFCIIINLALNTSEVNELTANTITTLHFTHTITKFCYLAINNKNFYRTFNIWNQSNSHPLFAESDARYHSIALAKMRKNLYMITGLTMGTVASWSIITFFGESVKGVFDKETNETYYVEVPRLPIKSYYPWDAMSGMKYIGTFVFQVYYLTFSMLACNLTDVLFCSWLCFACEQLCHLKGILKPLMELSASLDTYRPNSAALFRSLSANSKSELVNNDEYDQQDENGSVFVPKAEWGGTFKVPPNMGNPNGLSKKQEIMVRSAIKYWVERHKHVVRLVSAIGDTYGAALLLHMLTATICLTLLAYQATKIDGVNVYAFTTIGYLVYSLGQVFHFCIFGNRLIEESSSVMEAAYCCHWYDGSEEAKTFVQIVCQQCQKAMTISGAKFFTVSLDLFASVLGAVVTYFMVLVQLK
The test is classed as cell-based. The source says:
Fluo-4AM calcium fluorescence, plate reader on MdesOrco | contained the seven point mutations responded well to VUAA1

Test [8] addresses T10, MdesOrco (Mayetiola destructor, UniProt A0A1D8GZG0, A350S/H81F/N133L).
T10 construct: homomeric channel
T10 sequence (A0A1D8GZG0 1-466 H81F/N133L/A350S): T9 sequence (A0A1D8GZG0 1-466 H81F/N133L/I150T/T205L/C230Q/A350S/C408S)
It counts as cell-based. From the text:
Fluo-4AM calcium fluorescence, plate reader on MdesOrco | MdesOrco^(H81F, N133L, A350S) responded similarly to VUAA1 in HEK293 cells

For a further test, the target named is T11, DmelOR56a + DmelOrco (Drosophila melanogaster, UniProt Q9V8Y7).
T11 construct: gene Or56a; stoichiometry unknown; with Odorant receptor coreceptor
T11 sequence (Q9V8Y7 1-419): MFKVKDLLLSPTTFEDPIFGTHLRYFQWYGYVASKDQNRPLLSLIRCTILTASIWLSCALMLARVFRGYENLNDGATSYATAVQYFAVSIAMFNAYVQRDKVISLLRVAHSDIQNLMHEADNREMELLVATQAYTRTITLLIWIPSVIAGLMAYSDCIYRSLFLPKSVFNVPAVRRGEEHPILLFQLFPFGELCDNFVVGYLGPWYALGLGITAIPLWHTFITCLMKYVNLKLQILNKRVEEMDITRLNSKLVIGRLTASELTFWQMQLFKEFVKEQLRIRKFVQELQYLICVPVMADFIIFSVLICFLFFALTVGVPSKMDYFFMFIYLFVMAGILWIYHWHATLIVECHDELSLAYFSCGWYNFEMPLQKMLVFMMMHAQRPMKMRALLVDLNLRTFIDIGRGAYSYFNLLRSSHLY
T11 sequence (Q9VNB5 1-486 partner): T8 sequence (Q9VNB5 1-486)
It counts as cell-based. The conditions noted are these: agonist of OR; OR and Orco co-expressed. The source says: Fluo-4AM calcium fluorescence, plate reader on DmelOR56a + DmelOrco | when DmelOR56a was co-expressed with WT DmelOrco the cells responded dose-dependently to geosmin

A further test has as its target T12, DmelOR56a + AsegOrco (Drosophila melanogaster, UniProt Q9V8Y7).
T12 construct: gene Or56a; heterospecific complex: D. melanogaster OR56a (V5 tag) with Agrotis segetum Orco (c-myc tag), TREx/HEK293; with Odorant receptor coreceptor (Agrotis segetum)
T12 sequence (Q9V8Y7 1-419): T11 sequence (Q9V8Y7 1-419)
T12 sequence (U5KJY5 2-473 partner limits assumed): T7 sequence (U5KJY5 2-473 limits assumed)
The test is classed as cell-based. The conditions noted are these: agonist of OR; heterospecific Orco co-expressed. The source says:
Fluo-4AM calcium fluorescence, plate reader on DmelOR56a + AsegOrco | they responded well to their respective OR-specific ligand

For another test, the target named is T13, DmelOR56a + MdesOrco (Drosophila melanogaster, UniProt Q9V8Y7).
T13 construct: gene Or56a; heterospecific complex: D. melanogaster OR56a (V5 tag) with Mayetiola destructor Orco (c-myc tag), TREx/HEK293; with Odorant receptor coreceptor (Mayetiola destructor)
T13 sequence (Q9V8Y7 1-419): T11 sequence (Q9V8Y7 1-419)
T13 sequence (A0A1D8GZG0 1-466 partner): T9 sequence (A0A1D8GZG0 1-466 H81F/N133L/I150T/T205L/C230Q/A350S/C408S)
It counts as cell-based. The conditions noted are these: agonist of OR; heterospecific Orco co-expressed.

Consider `CC/C=C/C=C/CCCCC[C@H](C)OC(C)=O` [(2S,8E,10E)-8,10-tridecadien-2-yl acetate], for which the EC50 with MdesOR115 + MdesOrco [1] came to 2600 nM; with MdesOR115 + AsegOrco it was 3500 nM; in the test with MdesOR115 + DmelOrco, 6200 nM; in the test with MdesOR115 + MdesOrco [2], 3100 nM.

Consider `CCCC/C=C\CCCCOC(C)=O` [(Z)-5-decenyl acetate], for which the EC50 in the test with AsegOR7 + DmelOrco amounted to 1200 nM; in the test with AsegOR7 + MdesOrco [3] it was 2500 nM; in the test on AsegOR7 + AsegOrco [4], 2300 nM; in the test with AsegOR7 + MdesOrco [5], 2800 nM; in the test with AsegOR7 + AsegOrco [6] it was 2200 nM.

`CCc1ccc(NC(=O)CSc2nnc(-c3cccnc3)n2CC)cc1` [VUAA1, N-(4-ethylphenyl)-2-((4-ethyl-5-(3-pyridinyl)-4H-1,2,4-triazol-3-yl)thio)acetamide]: the EC50 turned out to be 27300 nM on AsegOrco, 15300 nM on DmelOrco, 26300 nM on MdesOrco [7] and 25000 nM at MdesOrco [8].

In the case of `C[C@H]1CCC[C@@]2(C)CCCC[C@]12O` [geosmin], the concentration for a half-maximal effect (EC50) on DmelOR56a + DmelOrco came out at 19.1 nM; on DmelOR56a + AsegOrco it was 37.2 nM; on DmelOR56a + MdesOrco it was 93.5 nM.
